ChEMBL document CHEMBL2074346, “Mouse breast cancer resistance protein (Bcrp1/Abcg2) mediates etoposide resistance and transport, but etoposide oral availability is limited primarily by P-glycoprotein” (Cancer Res, 2003)

biological target: T1, Broad substrate specificity ATP-binding cassette transporter ABCG2 (Mus musculus, UniProt Q7TMS5); test: TP_TRANSPORTER: drug resistance in BCRP-expressing MEF3.8 cells; format: functional, cell-based; settings: not given
T1 sequence (Q7TMS5 whole entry): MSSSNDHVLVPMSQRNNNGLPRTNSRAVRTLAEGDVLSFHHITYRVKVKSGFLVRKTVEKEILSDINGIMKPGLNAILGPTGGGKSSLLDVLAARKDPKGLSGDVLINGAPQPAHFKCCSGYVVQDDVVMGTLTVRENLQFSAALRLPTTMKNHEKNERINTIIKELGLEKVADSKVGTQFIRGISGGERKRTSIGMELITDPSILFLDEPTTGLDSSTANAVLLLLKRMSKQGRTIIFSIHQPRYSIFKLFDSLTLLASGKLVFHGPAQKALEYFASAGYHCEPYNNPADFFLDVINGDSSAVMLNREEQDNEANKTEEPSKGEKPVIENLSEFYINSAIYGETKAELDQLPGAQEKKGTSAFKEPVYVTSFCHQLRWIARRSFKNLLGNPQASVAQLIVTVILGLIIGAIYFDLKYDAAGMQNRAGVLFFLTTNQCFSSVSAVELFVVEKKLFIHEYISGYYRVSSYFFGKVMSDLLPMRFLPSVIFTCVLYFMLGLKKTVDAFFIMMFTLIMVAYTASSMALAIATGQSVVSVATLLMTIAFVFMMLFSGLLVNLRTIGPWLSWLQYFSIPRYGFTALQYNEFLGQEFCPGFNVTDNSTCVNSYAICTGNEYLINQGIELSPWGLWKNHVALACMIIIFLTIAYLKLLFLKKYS

Activity | Structure (SMILES)
substrate [] | COc1cc([C@@H]2c3cc4c(cc3[C@@H](O[C@@H]3O[C@@H]5CO[C@@H](c6cccs6)O[C@H]5[C@H](O)[C@H]3O)[C@H]3COC(=O)[C@H]23)OCO4)cc(OC)c1O [TENIPOSIDE]
substrate [] | CC[C@]1(O)C[C@H]2CN(CCc3c([nH]c4ccccc34)[C@@](C(=O)OC)(c3cc4c(cc3OC)N(C=O)[C@H]3[C@@](O)(C(=O)OC)[C@H](OC(C)=O)[C@]5(CC)C=CCN6CC[C@]43[C@@H]65)C2)C1 [VINCRISTINE]

Continued, compound first:

Structure (SMILES) | Activity
COc1cc([C@@H]2c3cc4c(cc3[C@@H](O[C@@H]3O[C@@H]5CO[C@@H](C)O[C@H]5[C@H](O)[C@H]3O)[C@H]3COC(=O)[C@H]23)OCO4)cc(OC)c1O [ETOPOSIDE] | substrate []
COc1cccc2c1C(=O)c1c(O)c3c(c(O)c1C2=O)C[C@@](O)(C(=O)CO)C[C@@H]3O[C@H]1C[C@H](N)[C@H](O)[C@H](C)O1 [DOXORUBICIN] | substrate []
C(=N\NC1=NCCN1)/c1c2ccccc2c(/C=N/NC2=NCCN2)c2ccccc12 [BISANTRENE] | substrate []
CC[C@@]1(O)C(=O)OCc2c1cc1n(c2=O)Cc2cc3c(CN(C)C)c(O)ccc3nc2-1 [TOPOTECAN] | substrate []
O=C1c2c(O)ccc(O)c2C(=O)c2c(NCCNCCO)ccc(NCCNCCO)c21 [MITOXANTRONE] | substrate []

biological target: T1, Broad substrate specificity ATP-binding cassette transporter ABCG2; test: TP_TRANSPORTER: transepithelial transport (basal to apical) in BCRP-expressing MDCKII cells; format: functional, cell-based; settings: dog, mdck-ii

Activity | Structure (SMILES)
substrate [] | COc1cc([C@@H]2c3cc4c(cc3[C@@H](O[C@@H]3O[C@@H]5CO[C@@H](C)O[C@H]5[C@H](O)[C@H]3O)[C@H]3COC(=O)[C@H]23)OCO4)cc(OC)c1O [ETOPOSIDE]
